Structures can show the parent of a compound that is named as a salt. Where two headings read alike, the source gives them in different places.
Tests used:
C. elegans = type: in vivo
Description: Nematode worms that are placed in liquid culture will move in such a way that they maintain a more or less even (or homogeneous) distribution throughout the culture. Nematode worms that are defective in movement will precipitate to the bottom in liquid culture.
Advanced multi-well plate readers are able to detect sub-regions of the wells of multi-well plates. By using these plate readers it is possible to take measurements in selected areas of the surface of the wells of the multi-well plates. If the area of measurement is centralized, so that only the middle of the well is measured, a difference in nematode autofluorescence (fluorescence which occurs in the absence of any external marker molecule) or optical density can be observed in the wells containing nematodes that move normally as compared to wells containing nematodes that are defective for movement. For the wells containing the nematodes that move normally, a low level of autofluorescence or optical density will be observed, whilst a high level of autofluorescence or optical density can be observed in the wells that contain the nematodes that are defective in movement. Optical density is measured using a variation of the platelet aggregation assay, which is well known in the art. Using the MRX revelation device from Dynex (USA), optical density can be measured at multiple points per well, showing the precipitation pattern of the nematodes.
In an adaptation of the movement assay, autofluorescence or optical density measurements can be taken in two areas of the surface of the well, one measurement in the centre of the well, and on measurement on the edge of the well. Comparing the two measurements gives analogous results as in the case if only the centre of the well is measured but the additional measurement of the edge of the well results in an extra control and somewhat more distinct results.

C. elegans pharynx = test: Pharynx pumping assay (calcein-AM), strain not specified: dilution series, insecticides, Tocris library; type: in vivo; conditions: for effect of compounds of known insecticidal activity on the pharynx pumping rate: FIGS. 18 to 21; for effect on pharynx pumping rate, dose-response curve: concentration range from less than 1 μM up to 100 μM
Experimental: The pumping rate of the pharynx is measured indirectly by adding a marker molecule precursor such as calcein-AM to the medium and measuring the formation of marker dye in the C. elegans gut. Calcein-AM is cleaved by esterases present in the C. elegans gut to release calcein, which is a fluorescent molecule. […] Therefore by measuring the accumulation of calcein in the nematode gut, detectable by fluorescence, it is possible to determine the pumping rate of the pharynx.
To perform the pharynx pumping screen with calcein-AM, a concentration of between 1 and 100 μM calcein-AM is added into the medium. Preferably 5 to 10 μM calcein-AM is used. Fluorescence is measured using a multi-well plate reader (Victor2, Wallac Oy, Finland) with following settings: Ex/Em=485/530.
To determine the sensitivity of the pharynx pumping assay, dilution series were made for some chemical substances. These include the chemicals clomipramine, tamoxifen, BP554, pimazide and thapsigargin. A concentration range was made from less than 1 μM up to 100 μM, and the pumping assay was repeated as described in previous examples.

| Molecule | movement assay reading, first number column (no head printed) (C. elegans; Table 10 c3) | movement assay reading, second number column (no head printed) (C. elegans; Table 10 c4) | hit call: detectable change in the movement behaviour (C. elegans; Table 10 c7) | also measured |
| --- | --- | --- | --- | --- |
| NCC(O)COc1cccc2ccccc12 (stereo not drawn) [N-desisopropyl propanolol] | 23737 | 43102 | HIT | – |
| CC(N)(COP(=O)(O)Oc1ccccc1)C(=O)O (stereo not drawn) [MSOPPE] | 23760 | 44614 | HIT | – |
| CC(=O)N[C@@H](CC(=O)N[C@@H](CCC(=O)O)C(=O)O)C(=O)O [Spaglumic acid] | 20295 | 38417 | HIT | – |
| O=C(O)c1cc2ccccc2[nH]1 [Indole-2-carboxylic acid] | 19362 | 43403 | HIT | – |
| ClC1=C(Cl)[C@]2(Cl)[C@@H]3[C@@H]4C[C@@H]([C@H]5O[C@@H]45)[C@@H]3[C@@]1(Cl)C2(Cl)Cl [Dieldrin] | – | – | – | effect of compounds of known insecticidal activity on the pharynx pumping rate (C. elegans pharynx): reduction in the pharynx pumping rate |
| N[C@H](C(=O)O)[C@H](CC(=O)O)c1ccc(Cl)cc1 [(2S,3R)-Chloropheg] | 21514 | 48736 | HIT | – |
| CC(=O)O[C@H](CC(=O)[O-])C[N+](C)(C)C [(n)-Acetylcarnitine] | 23457 | 44156 | HIT | – |
| CCN(CC)CCOc1ccc(Cc2ccccc2)cc1 [DPPE] | 20365 | 43629 | HIT | – |
| CCCCCCC(C)(C)c1cc(O)c2c(c1)OC(C)(C)[C@@H]1CC=C(CO)C[C@@H]21 [HU 210] | 15481 | 33514 | HIT | – |
| CP(=O)(O)C1=CCNCC1 [TPMPA] | 21792 | 120778 | HIT | – |
| CC(C)(Oc1ccc(Cl)cc1)C(=O)O [Clofibric acid] | 22933 | 40916 | HIT | – |
| COc1ccc(CNC(=O)/C=C/c2ccc3[nH]cc(CCN(C)C)c3c2)cc1 [GR 46611] | 15815 | 33199 | HIT | – |
| CC#CCOC(=O)C1=CCCN(C)C1 [Arecaidine but-2-ynyl ester] | 20002 | 37675 | HIT | – |
| S(-)-Atenolol | 18176 | 36336 | HIT | – |
| Picrotoxin | – | – | – | effect of compounds of known insecticidal activity on the pharynx pumping rate (C. elegans pharynx): reduction in the pharynx pumping rate |
| c1ccc(-c2cnc(-c3ccccc3)o2)cc1 [2,5-diphenyloxazole] | – | – | – | effect on pumping rate of the pharynx (C. elegans pharynx; both in wild-type worms and in constitutive pumping worms): inhibitor of the pumping rate of the pharynx |
| 7-(Dimethylcarbamoyloxy)-6-phenylpyrrolo | 14278 | 32900 | HIT | – |
| CN(C)CCCN1c2ccccc2CCc2ccc(Cl)cc21 [Clomipramine] | – | – | – | effect on pharynx pumping rate, dose-response curve (C. elegans pharynx): enhancer |
| CN(C)CCC=C1c2ccccc2COc2ccccc21 [Doxepin] | – | – | – | effect on pharynx pumping (C. elegans pharynx; general statement): enhancer of pharynx pumping |
| Oc1ccc2c3c1O[C@H]1c4c(c5ccccc5n4Cc4ccccc4)C[C@@]4(O)[C@@H](C2)N(CC2CC2)CC[C@]314 [N-Benzyl naltrindole] | 14932 | 31760 | HIT | – |
| COc1ccc(CCN(C)CCc2ccc(OC)c(OC)c2)cc1OC [YS-035] | 21415 | 42457 | HIT | – |

| Molecule | movement assay reading, first number column (no head printed) (C. elegans; Table 10 c3) | movement assay reading, second number column (no head printed) (C. elegans; Table 10 c4) | hit call: detectable change in the movement behaviour (C. elegans; Table 10 c7) | also measured |
| --- | --- | --- | --- | --- |
| CC/C(=C(\c1ccccc1)c1ccc(OCCN(C)C)cc1)c1ccccc1 [Tamoxifen] | – | – | – | effect on pharynx pumping rate, dose-response curve (C. elegans pharynx): inhibitors |
| C[S+](C)[O-] [DMSO] | – | – | – | toxic effect in pharynx pumping dose-response curve (C. elegans pharynx; solvent, at higher concentrations (FIG. 5)): toxic effect |
| O=C(O)[C@@H]1C[C@H](C(=O)O)N1 [cis-Azetidine-2,4-dicarboxylic acid] | 19503 | 40568 | HIT | – |
| N[C@@H](CP(=O)(O)O)C(=O)O [L-AP3] | 22073 | 41858 | HIT | – |
| COc1cc2nc(N3CCN(C(=O)c4ccco4)CC3)nc(N)c2cc1OC [Prazosin] | 94689 | 113608 | HIT | – |
| CN(C)CCCn1cc(C2=C(c3c[nH]c4ccccc34)C(=O)NC2=O)c2ccccc21 [GF 109203X] | 15685 | 34448 | HIT | – |
| NC1(C(=O)O)CCCC1 [Cycloleucine] | 19234 | 36560 | HIT | – |
| c1ccc(N2CCN(CCCOc3ccc4c(c3)OCO4)CC2)cc1 [BP554] | – | – | – | effect on pharynx pumping rate, dose-response curve (C. elegans pharynx): inhibitors |
| NC(CCCCCC(=O)O)C(=O)O (racemic) [DL-2-Aminosuberic acid] | – | – | – | hit call: detectable change in the movement behaviour (C. elegans; in vivo): HIT; movement assay reading, first number column (no head printed) (C. elegans; in vivo): 17141; movement assay reading, second number column (no head printed) (C. elegans; in vivo): 33518 |
| C=CC(N)CCC(=O)O (stereo not drawn) [Vigabatrin] | 20828 | 61410 | HIT | – |
| CC(C)(Cc1c[nH]c2ccc(Cl)cc12)NCCOc1ccccc1OCC1CC1 [RS 17053] | 14439 | 32050 | HIT | – |
| OCC(O)COc1cccc2ccccc12 (stereo not drawn) [Propanolol glycol] | 17134 | 34849 | – | – |
| N[C@@H](COP(=O)(O)O)C(=O)O [O-Phospho-L-serine] | 20292 | 41086 | HIT | – |
| NC(CCP(=O)(O)O)C(=O)O [L-AP4] | 19824 | 39523 | HIT | – |
| NC(CCCP(=O)(O)O)C(=O)O [D-AP5] | 19717 | 41697 | HIT | – |
| CC(=O)N1CCN(c2ccc(OCC3COC(Cn4ccnc4)(c4ccc(Cl)cc4Cl)O3)cc2)CC1 (stereo not drawn) [Ketoconazole] | 15803 | 33531 | HIT | – |
| N[C@@H](CCCP(=O)(O)O)C(=O)O [L-AP5] | 21446 | 42393 | HIT | – |
| O=c1[nH]c2cc(Cl)ccc2c(O)c1-c1cccc(Oc2ccccc2)c1 [L-701,324] | 14647 | 32476 | HIT | – |
| O=C(O)[C@@H]1C[C@@H](C(=O)O)N1 [tADA] | 16096 | 32342 | HIT | – |
| Cc1nccc2c1[nH]c1ccccc12 [Harmane HCl] | 1843115 | 555251 | – | – |
